# The source made the active and inactive calls. No cut-off for these calls is given here.
# Experiments:
# [1] = Cytotoxicity against African green monkey Vero E6 cells; type: cell-based; settings: chlorocebus sabaeus
# [2] = Cytotoxicity against HFF; type: cell-based; settings: human, HFF cells
# [3] = test system: Human alphaherpesvirus 1; test: Antiviral activity against Human herpesvirus 1 infected in HEL cells after 3 days by neutral red dye-based plaque reduction assay; type: functional, organism-based
# [4] = Cytotoxicity against human Ava5 cells; type: cell-based
# [5] = test system: Human betaherpesvirus 5; test: Antiviral activity against HCMV infected in HFF after 3 days by neutral red dye-based plaque reduction assay; type: functional, organism-based; settings: Human betaherpesvirus 5, 72 h
# [6] = Cytotoxicity against African green monkey CV1 cells; type: cell-based, CV-1; settings: chlorocebus aethiops
# [7] = test system: Rift Valley fever virus; test: Antiviral activity against Rift Valley fever virus infected in African green monkey Vero 76 cells after 3 days by neutral red dye-based plaque reduction assay; type: functional, organism-based; settings: for IC50: 72 h
# [8] = test system: Enterovirus C; test: Antiviral activity against Poliovirus infected in monkey LLC-MK2 cells after 3 days by neutral red dye-based plaque reduction assay; type: functional, organism-based
# [9] = test system: LLC-MK2; test: Cytotoxicity against monkey LLC-MK2 cells; type: cell-based, Macaca mulatta; settings: rhesus monkey
# [10] = Selectivity index, ratio of CC50 for African green monkey Vero cells to IC50 for Yellow fever virus; type: functional
# [11] = test system: Hepatitis C virus; test: Antiviral activity against Hepatitis C virus infected in human Ava5 cells after 3 days by neutral red dye-based plaque reduction assay; type: functional, organism-based; settings: Hepacivirus hominis
# [12] = Selectivity index, ratio of CC50 for HFF to IC50 for HCMV; type: functional
# [13] = test system: HEL; test: Cytotoxicity against HEL cells; type: cell-based; settings: human
# [14] = test system: SARS-CoV; test: Antiviral activity against SARS coronavirus infected in African green monkey Vero E6 cells after 3 days by neutral red dye-based plaque reduction assay; type: functional, organism-based; settings: Severe acute respiratory syndrome-related coronavirus
# [15] = test system: Respiratory syncytial virus; test: Antiviral activity against Respiratory syncytial virus infected in monkey MA104 cells after 3 days by neutral red dye-based plaque reduction assay; type: functional, organism-based
# [16] = test system: West Nile virus; test: Antiviral activity against WNV infected in African green monkey Vero 76 cells after 3 days by neutral red dye-based plaque reduction assay; type: functional, organism-based
# [17] = Cytotoxicity against African green monkey Vero cells; type: cell-based; settings: chlorocebus sabaeus, Vero cells
# [18] = Cytotoxicity against African green monkey Vero 76 cells; type: cell-based; settings: chlorocebus sabaeus; for Activity: vero 76; for CC50: Vero 76 cells
# [19] = test system: Measles morbillivirus; test: Antiviral activity against Measles virus infected in African green monkey CV1 cells after 3 days by neutral red dye-based plaque reduction assay; type: functional, organism-based; settings: CV-1, 72 h
# [20] = Cytotoxicity against monkey MA104 cells; type: cell-based, Macaca mulatta; settings: rhesus monkey
# [21] = Selectivity index, ratio of CC50 for African green monkey CV1 cells to IC50 for Measles virus; type: functional, CV-1
# [22] = test system: Dengue virus; test: Antiviral activity against Dengue virus infected in African green monkey Vero cells after 3 days by neutral red dye-based plaque reduction assay; type: functional, organism-based; settings: for IC50: 72 h
# [23] = Selectivity index, ratio of CC50 for human HepG2(2.2.1) cells to IC50 for HBV; type: functional
# [24] = Inhibition of rabbit erythrocytic AdoHcy hydrolase using AdoHcy as substrate assessed as formation of L-homocysteine preincubated for 5 mins followed by substrate addition measured after 1 hr by thiol quantitation reagent-based assay; set-up: species or system Oryctolagus cuniculus
# [25] = test system: Venezuelan equine encephalitis virus; test: Antiviral activity against Venezuelan equine encephalitis virus infected in African green monkey Vero cells after 3 days by neutral red dye-based plaque reduction assay; type: functional, organism-based
# [26] = test system: Yellow fever virus; test: Antiviral activity against Yellow fever virus infected in African green monkey Vero cells after 3 days by neutral red dye-based plaque reduction assay; type: functional, organism-based; settings: 72 h
# [27] = Cytotoxicity against human […] cells; type: cell-based
# [28] = test system: HeLa; test: Cytotoxicity against human HeLa cells; type: cell-based
# [29] = test system: Vaccinia virus; test: Antiviral activity against Vaccinia virus infected in HEL cells after 3 days by neutral red dye-based plaque reduction assay; type: functional, organism-based; settings: Orthopoxvirus vaccinia
# [30] = test system: MDCK; test: (§1) Cytotoxicity against MDCK cells; type: cell-based, Canis lupus familiaris; settings: dog, mdck
# [31] = test system: Influenza A virus; test: Antiviral activity against Influenza A virus H1N1 infected in MDCK cells after 3 days by neutral red dye-based plaque reduction assay; type: functional, organism-based
# [32] = test system: Respiratory syncytial virus; test: Antiviral activity against Respiratory syncytial virus infected in human HeLa cells after 3 days by neutral red dye-based plaque reduction assay; type: functional, organism-based
# [33] = test system: Hepatitis B virus; test: Antiviral activity against HBV infected in human HepG22.2.15 cells after 3 days by neutral red dye-based plaque reduction assay; type: functional, organism-based; settings: HepG2 2.2.15, 72 h
# [34] = test system: Human alphaherpesvirus 2; test: Antiviral activity against Human herpesvirus 2 infected in HEL cells after 3 days by neutral red dye-based plaque reduction assay; type: functional, organism-based
# [35] = test system: Influenza A virus; test: Antiviral activity against Influenza A virus H3N2 infected in MDCK cells after 3 days by neutral red dye-based plaque reduction assay; type: functional, organism-based
# [36] = Selectivity index, ratio of CC50 for African green monkey Vero 76 cells to IC50 for Tacaribe virus; type: functional
# [37] = Selectivity index, ratio of CC50 for MDCK cells to IC50 for Influenza A virus H5N1 virus; type: functional
# [38] = test system: A549; test: Cytotoxicity against human A549 cells; type: cell-based
# [39] = Cytotoxicity against MDCK cells relative to control; type: cell-based, Canis lupus familiaris; settings: dog
# [40] = Selectivity index, ratio of CC50 for MDCK cells to IC50 for Influenza B virus; type: functional
# [41] = test system: Tacaribe virus; test: Antiviral activity against Tacaribe virus infected in African green monkey Vero 76 cells after 3 days by neutral red dye-based plaque reduction assay; type: functional, organism-based; settings: Mammarenavirus tacaribeense; for IC50: 72 h
# [42] = Cytotoxicity against African green monkey Vero cells relative to control; type: cell-based; settings: chlorocebus sabaeus
# [43] = test system: MA104; test: Antiviral activity against Parainfluenza virus infected in monkey MA104 cells after 3 days by neutral red dye-based plaque reduction assay; type: functional, cell-based; settings: Paramyxoviridae
# [44] = Cytotoxicity against African green monkey Vero 76 cells relative to control; type: cell-based; settings: chlorocebus sabaeus
# [45] = test system: Influenza B virus; test: Antiviral activity against Influenza B virus infected in MDCK cells after 3 days by neutral red dye-based plaque reduction assay; type: functional, organism-based; settings: 72 h
# [46] = test system: Cowpox virus; test: Antiviral activity against Cowpox virus infected in HFF after 3 days by neutral red dye-based plaque reduction assay; type: functional, organism-based
# [47] = test system: Influenza A virus; test: Antiviral activity against Influenza A virus H5N1 infected in MDCK cells after 3 days by neutral red dye-based plaque reduction assay; type: functional, organism-based; settings: 72 h
# [48] = test system: unidentified adenovirus; test: Antiviral activity against Adenovirus infected in human A549 cells after 3 days by neutral red dye-based plaque reduction assay; type: functional, organism-based
# [49] = as §1; type: cell-based, Canis lupus familiaris; settings: dog, MDCK cells
# [50] = Cytotoxicity against human HeLa Ohio-1 cells; type: cell-based
# [51] = test system: Enterovirus; test: Antiviral activity against Rhinovirus infected in human HeLa Ohio-1 cells after 3 days by neutral red dye-based plaque reduction assay; type: functional, organism-based
# [52] = Selectivity index, ratio of CC50 for African green monkey Vero 76 cells to IC50 for Rift Valley fever virus; type: functional
# [53] = Selectivity index, ratio of CC50 for African green monkey Vero cells to IC50 for Dengue virus; type: functional
smiles,measurement,setting,value
Nc1nc(F)cc2c1ncn2[C@@H]1C=C(CCO)[C@@H](O)[C@H]1O,Activity,[1],Non-toxic
same,CC50,[2],> 300 µM
same,Activity,[3],inactive
same,Activity,[4],Non-toxic
same,IC50,[5],< 0.1 µM
same,CC50,[6],> 100 µM
same,Activity,[7],inactive
same,Activity,[8],inactive
same,Activity,[9],Non-toxic
same,Ratio CC50/IC50,[10],>3.4
same,Activity,[11],inactive
same,Ratio CC50/IC50,[12],> 300
same,Activity,[13],Non-toxic
same,Activity,[14],inactive
same,Activity,[15],inactive
same,Activity,[16],inactive
same,CC50,[17],> 100 µM
same,Activity,[18],Non-toxic
same,IC50,[19],89.8 µM
same,Activity,[20],Non-toxic
same,Ratio CC50/IC50,[21],>1
same,Activity,[22],inactive
same,Ratio CC50/IC50,[23],8
same,IC50,[24],> 10000 nM
same,Activity,[25],inactive
same,IC50,[26],29000 nM
same,CC50,[27],7.5 µM
same,Activity,[28],Non-toxic
same,Activity,[29],inactive
same,Activity,[30],Non-toxic
same,Activity,[31],inactive
same,Activity,[32],inactive
same,IC50,[33],990 nM
same,Activity,[34],inactive
Cc1cnc(N)c2ncn([C@@H]3C=C(CO)[C@@H](O)[C@H]3O)c12,Activity,[35],inactive
same,Activity,[1],Non-toxic
same,CC50,[2],247 µM
same,Ratio CC50/IC50,[36],72
same,Ratio CC50/IC50,[37],3.3
same,Activity,[38],Non-toxic
same,IC50,[5],6.4 µM
same,IC50,[7],> 36000 nM
same,Ratio CC50/IC50,[10],>100
same,CC50,[39],> 362 µM
same,Ratio CC50/IC50,[12],38.6
same,Activity,[13],Non-toxic
same,Activity,[14],inactive
same,Ratio CC50/IC50,[40],>320
same,Activity,[15],inactive
same,Activity,[16],inactive
same,CC50,[17],> 362 µM
same,IC50,[41],1200 nM
same,CC50,[18],36 µM
same,Activity,[20],Non-toxic
same,CC50,[42],228 µM
same,Activity,[43],inactive
same,CC50,[44],83.3 µM
same,IC50,[45],1100 nM
same,IC50,[22],> 228 µM
same,IC50,[24],41 nM
same,Activity,[25],inactive
same,IC50,[26],3600 nM
same,Activity,[46],inactive
same,IC50,[47],76 µM
same,Activity,[48],inactive
same,Activity,[28],Non-toxic
same,Activity,[29],inactive
same,CC50,[49],250 µM
same,Activity,[50],Non-toxic
same,Activity,[31],inactive
same,Activity,[32],inactive
same,Activity,[51],inactive
Nc1cc2nc[nH]c2c(=O)[nH]1 [DEZAGUANINE],CC50,[6],250 µM
same,IC50,[19],4.1 µM
Nc1nc(F)cc2c1ncn2[C@@H]1C[C@H](CO)[C@@H](O)[C@H]1O,Activity,[4],Non-toxic
same,CC50,[6],> 355 µM
same,Activity,[7],inactive
same,Ratio CC50/IC50,[10],>170
same,Activity,[11],inactive
same,Activity,[13],Non-toxic
same,Activity,[15],inactive
same,Activity,[16],inactive
same,CC50,[17],> 355 µM
same,Activity,[41],inactive
same,Activity,[18],Non-toxic
same,IC50,[19],9.6 µM
same,Activity,[20],Non-toxic
same,Ratio CC50/IC50,[21],>37
same,Activity,[22],inactive
same,IC50,[24],3320 nM
same,Activity,[25],inactive
same,IC50,[26],2100 nM
same,Activity,[28],Non-toxic
same,Activity,[29],inactive
same,Activity,[32],inactive
Nc1ncc(F)c2c1ncn2[C@@H]1C=C(CCO)[C@@H](O)[C@H]1O,Activity,[35],inactive
same,Activity,[1],Non-toxic
same,CC50,[2],> 300 µM
same,Ratio CC50/IC50,[36],>560
same,Ratio CC50/IC50,[37],>2.4
same,Activity,[38],Non-toxic
same,IC50,[5],5.1 µM
same,IC50,[7],1300 nM
same,Ratio CC50/IC50,[10],>240
same,CC50,[39],> 340 µM
same,Ratio CC50/IC50,[52],2.6
same,Ratio CC50/IC50,[12],759
same,Activity,[13],Non-toxic
same,Activity,[14],inactive
same,Ratio CC50/IC50,[40],>340
same,Activity,[15],inactive
same,Activity,[16],inactive
same,CC50,[17],> 340 µM
same,IC50,[41],< 340 nM
same,CC50,[18],3.4 µM
same,Activity,[20],Non-toxic
same,CC50,[42],109 µM
same,Activity,[43],inactive
same,CC50,[44],190 µM
same,IC50,[45],1000 nM
same,IC50,[22],15 µM
same,IC50,[24],145 nM
same,Activity,[25],inactive
same,IC50,[26],1500 nM
same,Activity,[46],inactive
same,Ratio CC50/IC50,[53],7.3
same,IC50,[47],139 µM
same,Activity,[48],inactive
same,Activity,[28],Non-toxic
same,Activity,[29],inactive
same,CC50,[49],> 340 µM
same,Activity,[50],Non-toxic
same,Activity,[31],inactive
same,Activity,[32],inactive
same,Activity,[51],inactive
